Experimental data published in ChEMBL document CHEMBL1201861, “Genomics of Drug Sensitity in Cancer screening data, Wellcome Trust Sanger Institute”.

How the values were obtained:
Experiment in all cases: cells
Details in all cases: Homo sapiens
[1] = tested on: CGTH-W-1; assay type: functional, cell-based;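 note: growth inhibition of human CGTH-W-1 cells measured by cell viability assay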
Description: SANGER: Inhibition of human CGTH-W-1 cell growth in a cell viability assay.

[2] = tested on: TE-6; assay type: functional, cell-based;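 note: growth inhibition of TE-6 cells, read out with a cell viability assay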
Description: SANGER: Inhibition of human TE-6 cell growth in a cell viability assay.

[3] = tested on: CTB-1; assay type: functional, cell-based
Description: SANGER: Inhibition of human CTB-1 cell growth in a cell viability assay.

[4] = tested on: JVM-3; assay type: functional, cell-based;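 note: growth inhibition of human JVM-3 cells, read out with a cell viability assay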
Description: SANGER: Inhibition of human JVM-3 cell growth in a cell viability assay.

[5] = tested on: JAR; assay type: functional, cell-based;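 note: growth inhibition of human JAR cells determined with a cell viability assay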
Description: SANGER: Inhibition of human JAR cell growth in a cell viability assay.

[6] = tested on: KP-N-YS; assay type: functional, cell-based;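 note: cell viability assay measuring inhibition of cell line growth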
Description: SANGER: Inhibition of human KP-N-YS cell growth in a cell viability assay.

[7] = tested on: KM12; assay type: functional, cell-based;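 note: KM12 cell growth inhibition, read out with a cell viability assay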
Description: SANGER: Inhibition of human KM12 cell growth in a cell viability assay.

[8] = tested on: DB; assay type: functional, cell-based
Description: SANGER: Inhibition of human DB cell growth in a cell viability assay.

[9] = tested on: LOX IMVI; assay type: functional, cell-based
Description: SANGER: Inhibition of human LOXIMVI cell growth in a cell viability assay.

[10] = tested on: NCI-H526; assay type: functional, cell-based;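 note: growth inhibition of the human NCI-H526 cell line, measured by a cell viability assay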
Description: SANGER: Inhibition of human NCI-H526 cell growth in a cell viability assay.

[11] = tested on: NCI-H1838; assay type: functional, cell-based;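 note: growth inhibition of NCI-H1838 cells, determined with a cell viability readout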
Description: SANGER: Inhibition of human NCI-H1838 cell growth in a cell viability assay.

[12] = tested on: HEL; assay type: functional, cell-based;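 note: growth inhibition of HEL cells, read out with a cell viability assay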
Description: SANGER: Inhibition of human HEL cell growth in a cell viability assay.

[13] = tested on: MZ7-mel; assay type: functional, cell-based;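 note: growth inhibition of human MZ7-mel cells, measured by a cell viability assay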
Description: SANGER: Inhibition of human MZ7-mel cell growth in a cell viability assay.

[14] = tested on: SW 954; assay type: functional, cell-based;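 note: growth inhibition of SW954 human cancer cells, read out as cell viability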
Description: SANGER: Inhibition of human SW954 cell growth in a cell viability assay.

[15] = tested on: A4-Fuk; assay type: functional, cell-based;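 note: growth inhibition of A4-Fuk cells, read out by a cell viability assay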
Description: SANGER: Inhibition of human A4-Fuk cell growth in a cell viability assay.

[16] = tested on: D283 Med; assay type: functional, cell-based
Description: SANGER: Inhibition of human D-283MED cell growth in a cell viability assay.

[17] = tested on: J-RT3-T3-5; assay type: functional, cell-based;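 note: cell viability assay measuring growth inhibition of human J-RT3-T3-5 cells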
Description: SANGER: Inhibition of human J-RT3-T3-5 cell growth in a cell viability assay.

[18] = tested on: MV4-11; assay type: functional, cell-based, MV-4-11;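 note: cell viability readout measuring growth inhibition of human MV-4-11 cells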
Description: SANGER: Inhibition of human MV-4-11 cell growth in a cell viability assay.

[19] = tested on: NB69; assay type: functional, cell-based;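 note: growth inhibition of NB69 cells, determined by a cell viability assay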
Description: SANGER: Inhibition of human NB69 cell growth in a cell viability assay.

[20] = tested on: COLO-684; assay type: functional, cell-based
Description: SANGER: Inhibition of human COLO-684 cell growth in a cell viability assay.

[21] = tested on: TE-11; assay type: functional, cell-based;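 note: growth inhibition of human TE-11 cells, read out by a cell viability assay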
Description: SANGER: Inhibition of human TE-11 cell growth in a cell viability assay.

[22] = tested on: NCI-H1648; assay type: functional, cell-based;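 note: cell viability assay measuring inhibition of NCI-H1648 cell growth, from the Sanger screening data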
Description: SANGER: Inhibition of human NCI-H1648 cell growth in a cell viability assay.

[23] = tested on: 697; assay type: functional, cell-based
Description: SANGER: Inhibition of human 697 cell growth in a cell viability assay.

[24] = tested on: A388; assay type: functional, cell-based;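 note: growth inhibition of human A388 cells, read out with a cell viability assay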
Description: SANGER: Inhibition of human A388 cell growth in a cell viability assay.

[25] = tested on: BB49-HNC; assay type: functional, cell-based;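 note: cell viability assay read-out, reported as inhibition of BB49-HNC cell growth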
Description: SANGER: Inhibition of human BB49-HNC cell growth in a cell viability assay.

[26] = tested on: ACN; assay type: functional, cell-based;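 note: growth inhibition of the human ACN cell line, read out via cell viability testing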
Description: SANGER: Inhibition of human ACN cell growth in a cell viability assay.

[27] = tested on: K5; assay type: functional, cell-based
Description: SANGER: Inhibition of human K5 cell growth in a cell viability assay.

[28] = tested on: HCE-4; assay type: functional, cell-based;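 note: cell viability assay measuring inhibition of growth in the human HCE-4 cell line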
Description: SANGER: Inhibition of human HCE-4 cell growth in a cell viability assay.

[29] = tested on: TE-5; assay type: functional, cell-based;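 note: inhibition of cell growth, read out by a cell viability assay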
Description: SANGER: Inhibition of human TE-5 cell growth in a cell viability assay.

[30] = tested on: ES3; assay type: functional, cell-based;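 note: growth inhibition of ES3 cells, read out with a cell viability assay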
Description: SANGER: Inhibition of human ES3 cell growth in a cell viability assay.

[31] = tested on: RPMI-8226; assay type: functional, cell-based
Description: SANGER: Inhibition of human RPMI-8226 cell growth in a cell viability assay.

[32] = tested on: EW-13; assay type: functional, cell-based;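 note: growth inhibition of EW-13 cells, read out with a cell viability assay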
Description: SANGER: Inhibition of human EW-13 cell growth in a cell viability assay.

[33] = tested on: TE-9; assay type: functional, cell-based;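 note: cell growth inhibition, measured with a cell viability readout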
Description: SANGER: Inhibition of human TE-9 cell growth in a cell viability assay.

[34] = tested on: SK-MEL-1; assay type: functional, cell-based;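 note: growth inhibition of human SK-MEL-1 cells, read out by a cell viability assay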
Description: SANGER: Inhibition of human SK-MEL-1 cell growth in a cell viability assay.

[35] = tested on: MOLT-4; assay type: functional, cell-based;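 note: growth inhibition of MOLT-4 cells, determined with a cell viability readout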
Description: SANGER: Inhibition of human MOLT-4 cell growth in a cell viability assay.

[36] = tested on: NCI-H1581; assay type: functional, cell-based;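 note: cell growth inhibition read out by a viability assay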
Description: SANGER: Inhibition of human NCI-H1581 cell growth in a cell viability assay.

[37] = tested on: TE-1; assay type: functional, cell-based;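 note: growth inhibition of the human TE-1 cell line, read out with a cell viability assay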
Description: SANGER: Inhibition of human TE-1 cell growth in a cell viability assay.

[38] = tested on: LS-411N; assay type: functional, cell-based
[39] = tested on: RKO; assay type: functional, cell-based;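 note: growth inhibition of human RKO cells, read out with a cell viability assay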
Description: SANGER: Inhibition of human RKO cell growth in a cell viability assay.

[40] = tested on: ES8; assay type: functional, cell-based;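 note: growth inhibition of human ES8 cells, read out with a cell viability assay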
Description: SANGER: Inhibition of human ES8 cell growth in a cell viability assay.

[41] = tested on: SCC-15; assay type: functional, cell-based;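 note: growth inhibition of SCC-15 cells, read out with a cell viability assay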
Description: SANGER: Inhibition of human SCC-15 cell growth in a cell viability assay.

[42] = tested on: LB771-HNC; assay type: functional, cell-based;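 note: growth inhibition of LB771-HNC human cells, read out with a cell viability assay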
Description: SANGER: Inhibition of human LB771-HNC cell growth in a cell viability assay.

[43] = tested on: EW-16; assay type: functional, cell-based;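 note: growth inhibition of human EW-16 cells, read out as cell viability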
Description: SANGER: Inhibition of human EW-16 cell growth in a cell viability assay.

[44] = tested on: GB-1; assay type: functional, cell-based;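 note: growth of GB-1 cells judged by a viability assay, IC50 marks the concentration inhibiting growth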
Description: SANGER: Inhibition of human GB-1 cell growth in a cell viability assay.

[45] = tested on: C2BBe1; assay type: functional, cell-based;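 note: growth inhibition of C2BBe1 cells, read out through a viability assay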
Description: SANGER: Inhibition of human C2BBe1 cell growth in a cell viability assay.

[46] = tested on: ES1; assay type: functional, cell-based;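 note: growth inhibition of ES1 cells, read out with a cell viability assay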
Description: SANGER: Inhibition of human ES1 cell growth in a cell viability assay.

[47] = tested on: U-266; assay type: functional, cell-based
Description: SANGER: Inhibition of human U-266 cell growth in a cell viability assay.

[48] = tested on: HDLM-2; assay type: functional, cell-based;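 note: cell viability assay measuring suppression of HDLM-2 proliferation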
Description: SANGER: Inhibition of human HDLM-2 cell growth in a cell viability assay.

[49] = tested on: ES6; assay type: functional, cell-based;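 note: growth inhibition of human ES6 cells, read out with a cell viability assay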
Description: SANGER: Inhibition of human ES6 cell growth in a cell viability assay.

[50] = tested on: KG-1; assay type: functional, cell-based;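 note: growth inhibition of KG-1 cells, read out by a cell viability assay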
Description: SANGER: Inhibition of human KG-1 cell growth in a cell viability assay.

[51] = tested on: LB831-BLC; assay type: functional, cell-based;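 note: growth inhibition of LB831-BLC cells, read out with a cell viability assay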
Description: SANGER: Inhibition of human LB831-BLC cell growth in a cell viability assay.

[52] = tested on: SK-PN-DW; assay type: functional, cell-based;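 note: growth inhibition measured with a viability assay on these cells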
Description: SANGER: Inhibition of human SK-PN-DW cell growth in a cell viability assay.

[53] = tested on: GR-ST; assay type: functional, cell-based
Description: SANGER: Inhibition of human GR-ST cell growth in a cell viability assay.

[54] = tested on: MZ1-PC; assay type: functional, cell-based;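 note: cell viability assay measuring growth inhibition of human MZ1-PC cells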
Description: SANGER: Inhibition of human MZ1-PC cell growth in a cell viability assay.

[55] = tested on: MS-1; assay type: functional, cell-based;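 note: growth inhibition of MS-1 cells, read out by cell viability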
Description: SANGER: Inhibition of human MS-1 cell growth in a cell viability assay.

[56] = tested on: NMC-G1; assay type: functional, cell-based;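 note: growth inhibition of the NMC-G1 cell line, measured with a cell viability read-out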
Description: SANGER: Inhibition of human NMC-G1 cell growth in a cell viability assay.

[57] = tested on: NCI-H209; assay type: functional, cell-based;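 note: growth inhibition of human NCI-H209 cells, measured by a cell viability assay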
Description: SANGER: Inhibition of human NCI-H209 cell growth in a cell viability assay.

[58] = tested on: SBC-1; assay type: functional, cell-based;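 note: cell viability assay measuring growth inhibition of the SBC-1 cell line, IC50 being the concentration that halves growth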
Description: SANGER: Inhibition of human SBC-1 cell growth in a cell viability assay.

[59] = tested on: LB1047-RCC; assay type: functional, cell-based;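 note: inhibition of cell growth, determined with a cell viability assay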
Description: SANGER: Inhibition of human LB1047-RCC cell growth in a cell viability assay.

[60] = tested on: KGN; assay type: functional, cell-based;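 note: growth inhibition of KGN cells, read out with a cell viability assay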
Description: SANGER: Inhibition of human KGN cell growth in a cell viability assay.

[61] = tested on: NCI-H1355; assay type: functional, cell-based;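 note: growth inhibition of human NCI-H1355 cells, read out by a cell viability assay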
Description: SANGER: Inhibition of human NCI-H1355 cell growth in a cell viability assay.

[62] = tested on: MOLT-16; assay type: functional, cell-based
Description: SANGER: Inhibition of human MOLT-16 cell growth in a cell viability assay.

[63] = tested on: GI-1; assay type: functional, cell-based
Description: SANGER: Inhibition of human GI-1 cell growth in a cell viability assay.

[64] = tested on: COR-L88; assay type: functional, cell-based
Description: SANGER: Inhibition of human COR-L88 cell growth in a cell viability assay.

NC(=O)c1ncn([C@@H]2O[C@H](COP(=O)(O)O)[C@@H](O)[C@H]2O)c1N
IC50 [1]: > 2000 µM
IC50 [2]: > 2000 µM
IC50 [3]: 646 µM
IC50 [4]: > 2000 µM
IC50 [5]: 346 µM
IC50 [6]: > 2000 µM
IC50 [7]: > 2000 µM
IC50 [8]: 91.3 µM
IC50 [9]: 929 µM
IC50 [10]: 115 µM
IC50 [11]: > 2000 µM
IC50 [12]: 804 µM
IC50 [13]: 1770 µM
IC50 [14]: 412 µM
IC50 [15]: 297 µM
IC50 [16]: > 2000 µM
IC50 [17]: > 2000 µM
IC50 [18]: 108 µM
IC50 [19]: 976 µM
IC50 [20]: 894 µM
IC50 [21]: 587 µM
IC50 [22]: > 2000 µM
IC50 [23]: 483 µM
IC50 [24]: > 2000 µM
IC50 [25]: > 2000 µM
IC50 [26]: 1880 µM
IC50 [27]: > 2000 µM
IC50 [28]: 1710 µM
IC50 [29]: > 2000 µM
IC50 [30]: 1100 µM
IC50 [31]: 501 µM
IC50 [32]: > 2000 µM
IC50 [33]: > 2000 µM
IC50 [34]: > 2000 µM
IC50 [35]: 485 µM
IC50 [36]: > 2000 µM
IC50 [37]: 207 µM
IC50 [38]: > 2000 µM
IC50 [39]: 830 µM
IC50 [40]: > 2000 µM
IC50 [41]: 466 µM
IC50 [42]: > 2000 µM
IC50 [43]: > 2000 µM
IC50 [44]: > 2000 µM
IC50 [45]: 597 µM
IC50 [46]: > 2000 µM
IC50 [47]: > 2000 µM
IC50 [48]: 1780 µM
IC50 [49]: > 2000 µM
IC50 [50]: 301 µM
IC50 [51]: > 2000 µM
IC50 [52]: 741 µM
IC50 [53]: 431 µM
IC50 [54]: > 2000 µM
IC50 [55]: 425 µM
IC50 [56]: > 2000 µM
IC50 [57]: > 2000 µM
IC50 [58]: 1400 µM
IC50 [59]: > 2000 µM
IC50 [60]: 630 µM
IC50 [61]: > 2000 µM
IC50 [62]: > 2000 µM

Cn1c(=O)n(-c2ccc(C(C)(C)C#N)cc2)c2c3cc(-c4cnc5ccccc5c4)ccc3ncc21 [DACTOLISIB]
IC50 [1]: 0.0206 µM
IC50 [2]: 0.22 µM
IC50 [3]: 0.0247 µM
IC50 [4]: 0.0308 µM
IC50 [5]: 0.956 µM
IC50 [6]: 0.185 µM
IC50 [7]: 0.236 µM
IC50 [8]: 0.0274 µM
IC50 [9]: 0.015 µM
IC50 [10]: 0.824 µM
IC50 [11]: 1.02 µM
IC50 [12]: 0.109 µM
IC50 [13]: 0.324 µM
IC50 [14]: 0.234 µM
IC50 [15]: 0.0465 µM
IC50 [16]: 0.0496 µM
IC50 [17]: 0.023 µM
IC50 [18]: 0.0287 µM
IC50 [19]: 0.0225 µM
IC50 [20]: 0.0336 µM
IC50 [63]: 0.0603 µM
IC50 [21]: 0.056 µM
IC50 [22]: 0.113 µM
IC50 [23]: 0.0174 µM
IC50 [24]: 0.25 µM
IC50 [25]: 0.174 µM
IC50 [26]: 0.0818 µM
IC50 [28]: 0.262 µM
IC50 [29]: 0.0468 µM
IC50 [30]: 0.0252 µM
IC50 [31]: 0.0338 µM
IC50 [32]: 0.0958 µM
IC50 [33]: 1.13 µM
IC50 [34]: > 2 µM
IC50 [35]: 0.0251 µM
IC50 [36]: 0.064 µM
IC50 [37]: 0.223 µM
IC50 [38]: 0.187 µM
IC50 [39]: 0.0383 µM
IC50 [40]: 0.0109 µM
IC50 [41]: 0.174 µM
IC50 [42]: 0.286 µM
IC50 [43]: 0.018 µM
IC50 [44]: 0.0542 µM
IC50 [45]: 0.075 µM
IC50 [46]: 0.0288 µM
IC50 [47]: 0.206 µM
IC50 [48]: > 2 µM
IC50 [49]: 0.0928 µM
IC50 [50]: 0.0842 µM
IC50 [51]: 0.121 µM
IC50 [52]: 0.235 µM
IC50 [53]: 0.0529 µM
IC50 [54]: 0.206 µM
IC50 [55]: 0.108 µM
IC50 [56]: 0.121 µM
IC50 [57]: 0.0173 µM
IC50 [58]: < 0.00781 µM
IC50 [59]: 0.0388 µM
IC50 [60]: 0.0563 µM
IC50 [64]: 0.848 µM
IC50 [61]: 0.0463 µM
IC50 [62]: 0.0172 µM
